Measured values reported in ChEMBL document CHEMBL3044586, “Design, synthesis, and anticonvulsant screening of some substituted piperazine and aniline derivatives of 5-phenyl-oxazolidin-2,4-diones and 5,5-diphenylimidazolidin-2,4 diones” (Med Chem Res, 2012).
Active and inactive are the calls of the source. The calls are words filed in the database; no cut-off is given here.

Legend:
[1] = system: Mus musculus; experiment: Neurotoxicity against Mus musculus Swiss albino (mouse) assessed as inability to maintain equilibrium on rod at 30 to 300 mg/kg, ip measured after 4 hr by rotarod test; format: toxicity, organism-based; parameters: dose 30-300 mg/kg, route intraperitoneal; settings: in vivo
[2] = system: Mus musculus; experiment: Neurotoxicity against Mus musculus Swiss albino (mouse) assessed as inability to maintain equilibrium on rod at 30 to 300 mg/kg, ip measured after 0.5 hr by rotarod test; format: toxicity, organism-based; parameters: dose 30-300 mg/kg, route intraperitoneal; settings: in vivo
[3] = system: Mus musculus; experiment: Anticonvulsant activity in Mus musculus Swiss albino (mouse) assessed as reduction in maximal electroshock-induced seizure at 30 to 300 mg/kg, ip measured after 4 hr; format: functional, organism-based
[4] = system: Mus musculus; experiment: Anticonvulsant activity in Mus musculus Swiss albino (mouse) assessed as reduction in maximal electroshock-induced seizure at 30 to 300 mg/kg, ip measured after 0.5 hr; format: functional, organism-based
[5] = system: Rattus norvegicus; experiment: Presynaptic agonist activity at 5HT1A receptor in Rattus norvegicus Wistar (rat) assessed as change in rectal temperature at 10 mg/kg, ip measured after 90 min (reference value: -0.2 +/- 0.1 degC); format: functional, organism-based; parameters: dose 10 mg/kg
[6] = system: Rattus norvegicus; experiment: Presynaptic agonist activity at 5HT1A receptor in Rattus norvegicus Wistar (rat) assessed as change in rectal temperature at 20 mg/kg, ip measured after 120 min (reference value: 0.0 +/- 0.1 degC); format: functional, organism-based; parameters: dose 20 mg/kg
[7] = system: Mus musculus; experiment: Binding affinity to 5HT2A receptor in ip dosed Mus musculus Swiss albino (mouse) assessed as effect on +/-DOI-induced head twitching administered 60 min prior to +/-DOI-challenge measured for 20 min; format: functional, organism-based
[8] = system: Rattus norvegicus; experiment: Presynaptic agonist activity at 5HT1A receptor in Rattus norvegicus Wistar (rat) assessed as change in rectal temperature at 20 mg/kg, ip measured after 60 min (reference value: 0.0 +/- 0.1 degC); format: functional, organism-based; parameters: dose 20 mg/kg
[9] = system: Rattus norvegicus; experiment: Anticonvulsant activity in Rattus norvegicus Wistar (rat) assessed as reduction in maximal electroshock-induced seizures at 30 mg/kg, po measured after 4 hr; format: functional, organism-based; parameters: dose 30 mg/kg
[10] = system: Rattus norvegicus; experiment: Presynaptic agonist activity at 5HT1A receptor in Rattus norvegicus Wistar (rat) assessed as change in rectal temperature at 10 mg/kg, ip measured after 120 min (reference value: 0.0 +/- 0.1 degC); format: functional, organism-based; parameters: dose 10 mg/kg
[11] = system: Rattus norvegicus; experiment: Presynaptic agonist activity at 5HT1A receptor in Rattus norvegicus Wistar (rat) assessed as change in rectal temperature at 20 mg/kg, ip measured after 30 min (reference value: -0.1 +/- 0.1 degC); format: functional, organism-based; parameters: dose 20 mg/kg
[12] = system: Rattus norvegicus; experiment: Postsynaptic antagonist activity at 5HT1A receptor in Rattus norvegicus Wistar (rat) assessed as inhibition of 8-OH-DPAT-induced lower lip retraction at 10 to 20 mg/kg, ip administered 45 min prior to 8-OH-DPAT-challenge measured after 15 min; format: functional, organism-based
[13] = system: Mus musculus; experiment: Anticonvulsant activity in Mus musculus Swiss albino (mouse) assessed as reduction in maximal electroshock-induced seizure at 100 mg/kg, ip measured after 4 hr; format: functional, organism-based; parameters: dose 100 mg/kg
[14] = system: Rattus norvegicus; experiment: Presynaptic agonist activity at 5HT1A receptor in Rattus norvegicus Wistar (rat) assessed as change in rectal temperature at 20 mg/kg, ip measured after 90 min (reference value: -0.2 +/- 0.1 degC); format: functional, organism-based; parameters: dose 20 mg/kg
[15] = system: Rattus norvegicus; experiment: Presynaptic agonist activity at 5HT1A receptor in Rattus norvegicus Wistar (rat) assessed as change in rectal temperature at 10 mg/kg, ip measured after 30 min (reference value: -0.1 +/- 0.1 degC); format: functional, organism-based; parameters: dose 10 mg/kg
[16] = system: Rattus norvegicus; experiment: Anticonvulsant activity in Rattus norvegicus Wistar (rat) assessed as reduction in maximal electroshock-induced seizures at 30 mg/kg, po measured after 0.5 hr; format: functional, organism-based; parameters: dose 30 mg/kg
[17] = system: Rattus norvegicus; experiment: Neurotoxicity against Rattus norvegicus Wistar (rat) assessed as inability to maintain equilibrium on rod at 30 mg/kg, po measured after 4 hr by rotarod test; format: toxicity, organism-based; parameters: dose 30 mg/kg, route oral; settings: in vivo
[18] = system: Rattus norvegicus; experiment: Presynaptic agonist activity at 5HT1A receptor in Rattus norvegicus Wistar (rat) assessed as change in rectal temperature at 10 mg/kg, ip measured after 60 min (reference value: 0.0 +/- 0.1 degC); format: functional, organism-based; parameters: dose 10 mg/kg
[19] = system: Rattus norvegicus; experiment: Neurotoxicity against Rattus norvegicus Wistar (rat) assessed as inability to maintain equilibrium on rod at 30 mg/kg, po measured after 0.5 hr by rotarod test; format: toxicity, organism-based; parameters: dose 30 mg/kg, route oral; settings: in vivo
[20] = system: Mus musculus; experiment: Antagonist activity at 5HT2A receptor in ip dosed Mus musculus Swiss albino (mouse) assessed as inhibition of +/-DOI-induced head twitching administered 60 min prior to +/-DOI-challenge measured for 20 min; format: functional; settings: read-out: ID50 (the source's name)
[21] = system: Mus musculus; experiment: Neurotoxicity against Mus musculus Swiss albino (mouse) assessed as inability to maintain equilibrium on rod at 300 mg/kg, ip measured after 4 hr by rotarod test; format: toxicity, organism-based; parameters: dose 300 mg/kg, route intraperitoneal; settings: in vivo
[22] = system: Mus musculus; experiment: Anticonvulsant activity in Mus musculus Swiss albino (mouse) assessed as reduction in maximal electroshock-induced seizure at 300 mg/kg, ip measured after 4 hr; format: functional, organism-based; parameters: dose 300 mg/kg
[23] = system: Mus musculus; experiment: Neurotoxicity against Mus musculus Swiss albino (mouse) assessed as inability to maintain equilibrium on rod at 100 mg/kg, ip measured after 0.5 hr by rotarod test; format: toxicity, organism-based; parameters: dose 100 mg/kg, route intraperitoneal; settings: in vivo
[24] = system: Mus musculus; experiment: Anticonvulsant activity in Mus musculus Swiss albino (mouse) assessed as reduction in maximal electroshock-induced seizure at 100 mg/kg, ip measured after 0.5 hr; format: functional, organism-based; parameters: dose 100 mg/kg
[25] = system: Mus musculus; experiment: Anticonvulsant activity in Mus musculus Swiss albino (mouse) assessed as reduction in maximal electroshock-induced seizure at 30 mg/kg, ip measured after 4 hr; format: functional, organism-based; parameters: dose 30 mg/kg
[26] = system: Rattus norvegicus; experiment: Postsynaptic agonist activity at 5HT1A receptor in Rattus norvegicus Wistar (rat) assessed as increase in lower lip retraction at 10 to 20 mg/kg, ip measured after 15 min; format: functional, organism-based

## Cc1ccc(NCCN2C(=O)NC(c3ccccc3)(c3ccccc3)C2=O)cc1
[1]
  Activity: Non-toxic
[2]
  Activity: Non-toxic
[3]
  Activity: inactive
[4]
  Activity: inactive

## O=C1NC(c2ccccc2)(c2ccccc2)C(=O)N1CCN1CCN(c2ccc(Cl)cc2)CC1
[1]
  Activity: Non-toxic
[2]
  Activity: Non-toxic
[3]
  Activity: inactive
[4]
  Activity: inactive

## COc1ccc(NCCN2C(=O)OC(c3ccccc3)C2=O)cc1 (centres undefined)
[5]
  deltaT: -0.8 °C
[6]
  deltaT: -1.3 °C
[7]
  Activity: inactive
[8]
  deltaT: -1.5 °C
[1]
  Activity: Non-toxic
[9]
  Activity: inactive
[10]
  deltaT: -0.7 °C
[11]
  deltaT: -1.1 °C
[12]
  inhibition: Active
[13]
  Activity: Active
[14]
  deltaT: -1.5 °C
[2]
  Activity: Non-toxic
[15]
  deltaT: -0.5 °C
[16]
  Activity: inactive
[17]
  Activity: Non-toxic
[18]
  deltaT: -0.8 °C
[19]
  Activity: Non-toxic
[4]
  Activity: inactive

## O=C1OC(c2ccccc2)C(=O)N1CCN1CCN(c2ccc(O)cc2)CC1 (centres undefined)
[1]
  Activity: Non-toxic
[2]
  Activity: Non-toxic
[3]
  Activity: inactive
[4]
  Activity: inactive

## O=C(c1ccc(F)cc1)C1CCN(CCn2c(=O)[nH]c3ccccc3c2=O)CC1 [KETANSERIN]
[20]
  ED50: 0.12 mg/kg

## Cc1ccc(NCCN2C(=O)OC(c3ccccc3)C2=O)cc1 (centres undefined)
[1]
  Activity: Non-toxic
[2]
  Activity: Non-toxic
[3]
  Activity: inactive
[4]
  Activity: inactive

## O=C1NC(c2ccccc2)(c2ccccc2)C(=O)N1CCNc1ccc(Cl)cc1
[1]
  Activity: Non-toxic
[2]
  Activity: Non-toxic
[3]
  Activity: inactive
[4]
  Activity: inactive

## Cc1ccc(N2CCN(CCN3C(=O)NC(c4ccccc4)(c4ccccc4)C3=O)CC2)cc1
[21]
  Activity: Toxic
[22]
  Activity: Active
[23]
  Activity: Toxic
[4]
  Activity: inactive

## O=C1NC(c2ccccc2)(c2ccccc2)C(=O)N1CCN1CCN(c2ccccn2)CC1
[1]
  Activity: Non-toxic
[2]
  Activity: Non-toxic
[3]
  Activity: inactive
[4]
  Activity: inactive

## O=C1NC(c2ccccc2)(c2ccccc2)C(=O)N1CCNc1ccc(F)cc1
[5]
  deltaT: -0.9 °C
[6]
  deltaT: -1.5 °C
[7]
  Activity: inactive
[8]
  deltaT: -2.7 °C
[1]
  Activity: Non-toxic
[9]
  Activity: Active
[10]
  deltaT: -0.7 °C
[11]
  deltaT: -2.5 °C
[14]
  deltaT: -2.9 °C
[24]
  Activity: Active
[2]
  Activity: Non-toxic
[15]
  deltaT: -0.5 °C
[16]
  Activity: Active
[17]
  Activity: Non-toxic
[25]
  Activity: Active
[18]
  deltaT: -0.7 °C
[26]
  Activity: Active
[19]
  Activity: Non-toxic

## O=C1NC(c2ccccc2)(c2ccccc2)C(=O)N1CCN1CCN(c2ccc([N+](=O)[O-])cc2)CC1
[21]
  Activity: Toxic
[22]
  Activity: Active
[2]
  Activity: Non-toxic
[4]
  Activity: inactive
